These results are taken from patent US11672868B2, “Bicyclic peptide ligands specific for MT1-MMP” (priority 2014, dated 2023).

Marks after values point to notes of the source that are not given here. Numbered stars: 1 amine (or outer) side, 2 acyl side, 3 side chain; on linkers, the order of the positions; unused ones are H or OH. Bridge positions count the residues as written; N and C are the ends. Square brackets hold non-standard residues; d marks the D form. Peptide text beside a SMILES is read from it. * marks the point of attachment. X1 = COc1cc2cc(c1Cl)N(C)C(=O)C[C@H](OC(=O)[C@H](C)N(C)C(=O)CCC(C)(C)SSCCCC(=O)*)[C@]1(C)O[C@H]1[C@H](C)[C@@H]1C[C@@](O)(NC(=O)O1)[C@H](OC)/C=C/C=C(\C)C2; 5FAM = O=C1OC2(c3ccc(O)cc3Oc3cc(O)ccc32)c2ccc(C(=O)*)cc21; 1Nal = N[C@@H](Cc1cccc2ccccc12)C(=O)O; TBMB = c1c(C[*:1])cc(C[*:3])cc1C[*:2]; Tle = CC(C)(C)[C@H](N)C(=O)O; βAla = NCCC(=O)O; Sar = CNCC(=O)O

The nature of data set [1]: Plasma stability, quantitative LC-MS. The format is in vitro ADME. The note with it: rat, incubation up to 24 hrs, 4 μM BDC, read-out: t1/2 (hrs) (rat plasma) (converted). Here is the method: (§1) The four BDCs were assessed for several in vitro parameters such as retention of potency to the human MT1-MMP hemopexin domain, stability in ex vivo mouse, rat and human plasma, and stability to reducing agents such as dithiothreitol.

Data set [2] deals with MT1-MMP hemopexin domain. The data set is described as follows: FP competition, species cross-reactivity (dog). The format is binding. The conditions noted are these: Table 13. The text has this:
(§2) Here, a pre-formed complex of PEX with the fluorescent PEX-binding tracer is titrated with free, non-fluoresceinated bicyclic peptide. Since all 17-69-based peptides are expected to bind at the same site, the titrant will displace the fluorescent tracer from PEX. Dissociation of the complex can be measured quantitatively, and the Kd of the competitor (titrant) to the target protein determined. The advantage of the competition method is that the affinities of non-fluoresceinated bicyclic peptides can be determined accurately and rapidly.
(§3) Subsequently, the non-fluorescent competitor bicyclic peptide (usually just the bicycle core sequence) is titrated, such that it displaces the fluorescent tracer from the target protein. The displacement of the tracer is measured and associated with a drop in fluorescence polarisation. The drop in fluorescence polarisation is proportional to the fraction of target protein bound with the non-fluorescent titrant, and thus is a measure of the affinity of titrant to target protein.
(§4) The raw data is fit to the analytical solution of the cubic equation that describes the equilibria between fluorescent tracer, titrant, and binding protein. The fit requires the value of the affinity of fluorescent tracer to the target protein, which can be determined separately by direct binding FP experiments (see previous section). […]

Data set [3] is described as follows: Plasma stability, quantitative LC-MS (Method #2). The format is in vitro ADME, human. The note with it: quantitative LC-MS, incubation up to 24 hrs, 4 μM BDC; for half-life at 4 μM: human, read-out: t1/2 (hrs) (human plasma) (converted). As to the method: […] […] Prior to LC-MS analysis, samples were defrosted, and mixed with 3 volumes (here, 120 μL) of 1:1 acetonitrile/MeOH water. The milky suspensions were centrifuged for 30 min at 13000 rpm, and peptide-containing supernatants were quantitated for doubly/triply charged species and MS/MS fragments thereof using a Waters Xevo TQ-D instrument, while using a plasma extracted standard curve of the same peptides as a reference. The half-life of degradation in plasma was used to assess the comparative stability of the molecules.

The target in data set [4] is T1, MT1-MMP hemopexin domain (Mus musculus, UniProt P53690).
T1 construct: MT1-MMP hemopexin domain derived from other species
Briefly: FP competition, species cross-reactivity (mouse). The data set is classed as binding. The note with it: Table 13.
Description: as §2, §3, §4

Data set [5] is described as follows: Plasma stability, quantitative LC-MS (Method #2). The data set is classed as in vitro ADME, mouse. The conditions noted are these: mouse, quantitative LC-MS, incubation up to 24 hrs, 4 μM BDC, read-out: t1/2 (hrs) (mouse plasma) (converted). As to the method:
To obtain plasma stability of bicyclic peptides quantitatively, peptide stock solutions (200 μM in DMSO) were mixed with plasma (human or mouse), such that final concentrations were 10 μM. 40 μL samples were taken periodically up to 8 hrs and frozen at −80° C. Prior to LC-MS analysis, samples were defrosted, and mixed with 3 volumes (here, 120 μL) of 1:1 acetonitrile/MeOH water. The milky suspensions were centrifuged for 30 min at 13000 rpm, and peptide-containing supernatants were quantitated for doubly/triply charged species and MS/MS fragments thereof using a Waters Xevo TQ-D instrument, while using a plasma extracted standard curve of the same peptides as a reference. The half-life of degradation in plasma was used to assess the comparative stability of the molecules.

Data set [6] can be described thus: Stability to reducing agent dithiothreitol (DTT). The data set is classed as physicochemical. The note with it: Bicycle Drug Conjugates, quantitative LC-MS. As to the method:
as §1

The conditions of data set [7]: Kellogg et al (2011), cited from earlier work.
The subject of data set [8] is human lung squamous cell carcinoma line EBC-1. The data set is described as follows: Efficacy in EBC-1 xenograft mice. The format is in vivo, mouse. As to the method:
In vivo efficacy of BT17BDC-17, BT17BDC-18, BT17BDC-19 and BT17BDC-20 All BDCs containing the stabilised bicycle core sequence were tested for their efficacies in in vivo mouse xenograft models, using the human lung squamous cell carcinoma line EBC-1.
The area under the curve (AUC) of tumour volume over time and BDC was taken and plotted against the corresponding dose group (FIG. 13).

A further data set deals with T2, MMP-1 (Homo sapiens, UniProt P03956).
T2 sequence (P03956 100-469): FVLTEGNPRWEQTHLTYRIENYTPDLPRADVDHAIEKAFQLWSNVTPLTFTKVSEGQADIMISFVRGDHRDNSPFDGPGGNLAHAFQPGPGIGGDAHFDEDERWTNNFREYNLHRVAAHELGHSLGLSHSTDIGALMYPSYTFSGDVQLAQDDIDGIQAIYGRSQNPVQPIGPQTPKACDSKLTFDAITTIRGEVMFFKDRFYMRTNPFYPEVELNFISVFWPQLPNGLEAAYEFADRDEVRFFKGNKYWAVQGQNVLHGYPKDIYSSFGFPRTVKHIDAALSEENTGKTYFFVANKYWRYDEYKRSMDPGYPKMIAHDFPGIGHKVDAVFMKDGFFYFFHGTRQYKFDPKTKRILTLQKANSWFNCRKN
The data set is described as follows: FP selectivity against related metalloproteinases. The data set is classed as binding. The note with it: Table 14. As to the method:
(§5) The N-terminally fluoresceinated derivative of 17-69-07-N241 (termed 17-69-07-N258, of the sequence: Fluorescein-(bAla)-Sar10-A-(17-69-07) D-Ala1 1Nal4 D-Ala5 tBuGly11) was tested against related human metalloproteinases.

The next data set addresses T3, MMP-2 (Homo sapiens, UniProt P08253).
T3 sequence (P08253 110-660): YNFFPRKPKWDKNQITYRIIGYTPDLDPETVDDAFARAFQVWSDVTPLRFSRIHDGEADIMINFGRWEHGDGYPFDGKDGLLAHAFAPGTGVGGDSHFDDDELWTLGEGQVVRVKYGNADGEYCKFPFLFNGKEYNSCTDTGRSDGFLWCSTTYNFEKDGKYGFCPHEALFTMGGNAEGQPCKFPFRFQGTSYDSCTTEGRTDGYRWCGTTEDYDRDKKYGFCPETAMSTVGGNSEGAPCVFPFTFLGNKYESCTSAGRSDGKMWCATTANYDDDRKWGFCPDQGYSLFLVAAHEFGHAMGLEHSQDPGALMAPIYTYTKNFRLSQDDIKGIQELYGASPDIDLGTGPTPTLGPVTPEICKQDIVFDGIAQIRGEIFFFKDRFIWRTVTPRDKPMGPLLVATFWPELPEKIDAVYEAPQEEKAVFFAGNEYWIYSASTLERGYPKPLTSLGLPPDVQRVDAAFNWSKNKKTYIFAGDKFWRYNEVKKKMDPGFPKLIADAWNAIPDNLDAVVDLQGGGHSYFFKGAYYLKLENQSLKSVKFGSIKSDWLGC
Briefly: FP selectivity against related metalloproteinases. The format is binding. The conditions noted are these: Table 14. As to the method: as §5

The target in another data set is MMP-16 (Homo sapiens, UniProt P51512). The data set is described as follows: FP selectivity against related metalloproteinases. The note with it: Table 14. The data set is classed as binding. Here is the method:
as §5

For the next data set, the target named is MMP-15 (Homo sapiens, UniProt P51511). Briefly: FP selectivity against related metalloproteinases. The data set is classed as binding. The note with it: Table 14. Here is the method:
as §5

The term Kd denotes the constant that tells how readily two partners part at equilibrium. High values mean lower affinity, low ones higher affinity.

Chain of MMP-16 (P51512 120-607): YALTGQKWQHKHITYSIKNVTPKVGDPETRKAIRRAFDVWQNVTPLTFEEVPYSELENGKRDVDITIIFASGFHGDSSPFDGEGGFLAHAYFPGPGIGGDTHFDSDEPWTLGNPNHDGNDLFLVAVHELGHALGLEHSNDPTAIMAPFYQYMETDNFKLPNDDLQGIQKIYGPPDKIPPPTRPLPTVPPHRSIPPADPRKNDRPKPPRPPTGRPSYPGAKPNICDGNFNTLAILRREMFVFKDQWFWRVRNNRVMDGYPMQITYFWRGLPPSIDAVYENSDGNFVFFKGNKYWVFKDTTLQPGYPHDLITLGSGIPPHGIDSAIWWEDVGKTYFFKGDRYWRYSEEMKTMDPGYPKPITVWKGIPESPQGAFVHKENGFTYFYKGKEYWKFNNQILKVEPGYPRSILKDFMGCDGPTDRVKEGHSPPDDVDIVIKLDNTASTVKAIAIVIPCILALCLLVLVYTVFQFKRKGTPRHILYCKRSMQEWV
Chain of MMP-15 (P51511 132-669): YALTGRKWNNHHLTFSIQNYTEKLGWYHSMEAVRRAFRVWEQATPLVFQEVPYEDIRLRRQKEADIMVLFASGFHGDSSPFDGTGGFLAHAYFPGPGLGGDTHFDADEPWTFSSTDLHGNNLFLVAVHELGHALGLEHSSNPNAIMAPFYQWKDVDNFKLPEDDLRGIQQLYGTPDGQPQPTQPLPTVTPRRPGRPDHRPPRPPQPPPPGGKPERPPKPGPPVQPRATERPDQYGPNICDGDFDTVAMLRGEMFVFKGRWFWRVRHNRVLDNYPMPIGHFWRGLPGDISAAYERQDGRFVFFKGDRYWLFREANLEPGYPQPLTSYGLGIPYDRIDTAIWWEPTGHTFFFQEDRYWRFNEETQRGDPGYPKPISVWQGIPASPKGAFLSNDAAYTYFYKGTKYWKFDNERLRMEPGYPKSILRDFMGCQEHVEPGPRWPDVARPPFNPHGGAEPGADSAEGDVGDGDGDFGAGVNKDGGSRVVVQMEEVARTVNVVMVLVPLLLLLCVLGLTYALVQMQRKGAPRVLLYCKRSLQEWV

As for `C[C@H](NC(=O)CN(C)C(=O)CN(C)C(=O)CN(C)C(=O)CN(C)C(=O)CN(C)C(=O)CN(C)C(=O)CN(C)C(=O)CN(C)C(=O)CN(C)C(=O)CN(C)C(=O)CCN)C(=O)N[C@H]1CSCc2cc3cc(c2)CSC[C@H](NC(=O)[C@@H](C)NC(=O)[C@H](Cc2cccc4ccccc24)NC(=O)[C@H](CCC(=O)O)NC(=O)[C@H](CC(N)=O)NC(=O)[C@@H](C)NC1=O)C(=O)N[C@@H](CCC(=O)O)C(=O)N[C@@H](CC(=O)O)C(=O)N[C@@H](Cc1ccccc1)C(=O)N[C@@H](Cc1ccc(O)cc1)C(=O)N[C@@H](CC(=O)O)C(=O)N[C@@H](C(C)(C)C)C(=O)N[C@H](C(N)=O)CSC3` [17-69-07-N241, bAla-Sar10-A-(17-69-07) D-Ala1 1Nal4 D-Ala5 tBuGly11] (H-[βAla][Sar][Sar][Sar][Sar][Sar][Sar][Sar][Sar][Sar][Sar]AC[dA]NE[1Nal][dA]CEDFYD[Tle]C-NH2; linker 13-19-26 via TBMB; C-terminus assumed), the half-life at 4 μM in data set [1] (rat plasma (ex vivo)), in data set [3] (human plasma) and in data set [5] (mouse plasma) was over 36 h in each case. Moreover, the Kd stood at 1.4 nM at MT1-MMP hemopexin domain [2] and 0.63 nM at MT1-MMP hemopexin domain [4].
Regarding `COc1cc2cc(c1Cl)N(C)C(=O)C[C@H](OC(=O)[C@H](C)N(C)C(=O)CCC(C)(C)SSCCCC(=O)NCCC(=O)N(C)CC(=O)N(C)CC(=O)N(C)CC(=O)N(C)CC(=O)N(C)CC(=O)N(C)CC(=O)N(C)CC(=O)N(C)CC(=O)N(C)CC(=O)N(C)CC(=O)N[C@@H](C)C(=O)N[C@H]1CSCc3cc4cc(c3)CSC[C@H](NC(=O)[C@@H](C)NC(=O)[C@H](Cc3cccc5ccccc35)NC(=O)[C@H](CCC(=O)O)NC(=O)[C@H](CC(N)=O)NC(=O)[C@@H](C)NC1=O)C(=O)N[C@@H](CCC(=O)O)C(=O)N[C@@H](CC(=O)O)C(=O)N[C@@H](Cc1ccccc1)C(=O)N[C@@H](Cc1ccc(O)cc1)C(=O)N[C@@H](CC(=O)O)C(=O)N[C@@H](C(C)(C)C)C(=O)N[C@H](C(N)=O)CSC4)[C@]1(C)O[C@H]1[C@H](C)[C@@H]1C[C@@](O)(NC(=O)O1)[C@H](OC)/C=C/C=C(\C)C2` [BT17BDC-19] ({X1-βAla}-[Sar][Sar][Sar][Sar][Sar][Sar][Sar][Sar][Sar][Sar]AC[dA]NE[1Nal][dA]CEDFYD[Tle]C-NH2; linker 12-18-25 via TBMB), the “Relative Stability to DTT (BDC)” value in [6] stood at 30. For the same compound, the half-life at 4 μM was over 36 h in data set [1] (plasma), over 14 h in data set [3] (plasma) and over 36 h in [5] (plasma). Also, in data set [7] (in the antibody drug conjugate context, compared to the non-hindered disulphide), the “fold reduction in sensitivity to a reducing agent such as dithiothreitol” value is given as 14 fold. The “Relative Stability to DTT (ADC)” value in data set [7] (values relate to antibody drug conjugates containing the same disulphide linker) is given as 14. The “efficacy in EBC-1 xenograft” value in [8] (EBC-1 xenograft) is listed as “efficacious”. Moreover, the “tolerability / body weight” value in [8] (EBC-1 xenograft) was “well tolerated at efficacious doses”. The “ED50, effective dose to achieve 50% tumour AUC reduction” value in data set [8] (mouse bearing EBC-1 tumours, ± 95% confidence limit) is reported as 3.1 ± 1.6^b mg/kg. For the same compound, the “t1/2 (hrs) (human plasma)” value in data set [3] worked out at 23.5 ± 4.1 h.
Consider `C[C@H](NC(=O)CN(C)C(=O)CN(C)C(=O)CN(C)C(=O)CN(C)C(=O)CN(C)C(=O)CN(C)C(=O)CN(C)C(=O)CN(C)C(=O)CN(C)C(=O)CN(C)C(=O)CCNC(=O)c1ccc2c(c1)C(=O)OC21c2ccc(O)cc2Oc2cc(O)ccc21)C(=O)N[C@H]1CSCc2cc3cc(c2)CSC[C@H](NC(=O)[C@@H](C)NC(=O)[C@H](Cc2cccc4ccccc24)NC(=O)[C@H](CCC(=O)O)NC(=O)[C@H](CC(N)=O)NC(=O)[C@@H](C)NC1=O)C(=O)N[C@@H](CCC(=O)O)C(=O)N[C@@H](CC(=O)O)C(=O)N[C@@H](Cc1ccccc1)C(=O)N[C@@H](Cc1ccc(O)cc1)C(=O)N[C@@H](CC(=O)O)C(=O)N[C@@H](C(C)(C)C)C(=O)N[C@H](C(N)=O)CSC3` [17-69-07-N258, Fluorescein-(bAla)-Sar10-A-(17-69-07) D-Ala1 1Nal4 D-Ala5 tBuGly11] ({5FAM-βAla}-[Sar][Sar][Sar][Sar][Sar][Sar][Sar][Sar][Sar][Sar]AC[dA]NE[1Nal][dA]CEDFYD[Tle]C-NH2; linker 12-18-25 via TBMB), for which the Kd on MMP-1, at MMP-2, on MMP-16 and at MMP-15 was over 1000 nM each time.
